According to patent US8389523B2, “Substituted quinoxaline and an agrochemical composition thereof” (Kumiai Chemical Industry Co., Ltd., priority 2007, dated 2013):

Key:
Type in all cases: in vivo
Set-up in all cases: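 grade 0 to 5 of growth suppression where 5 is 90% or more and 0 below 10%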
Amaranthus viridis L. [1] = test: Herbicidal effects in upland field soil treatment (Test Example 2); conditions: 1000 g active ingredient per hectare, 21st day after treatment, criteria of Table 138
Method in brief: (§1)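 Upland soil, seeds sown and covered → diluted WP sprayed uniformly onto soil surface (1000 L/ha; 1000 g a.i./ha) → greenhouse → effect scored day 21.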

[2] = tested on: Abutilon theophrasti medicus; test: as above; conditions: 1000 g active ingredient per hectare, 21st day after treatment, criteria of Table 138
Method in brief: as §1

Amaranthus viridis L. [3] = test: Herbicidal effects in upland field foliar treatment (Test Example 3); conditions: 1000 g active ingredient per hectare, 14th day after treatment, criteria of Table 138
Method in brief: (§2)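 Seeds sown in upland soil, grown 2 weeks in greenhouse; whole-plant overhead spray of diluted wettable powder at 1000 g a.i./ha (1000 L/ha); kept in greenhouse; effects graded by criteria at 14 d.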

[4] = tested on: Echinochloa crus-galli (L.) P. Beauv. var. crus-galli; test: as above; conditions: 1000 g active ingredient per hectare, 14th day after treatment, criteria of Table 138
Method in brief: as §2

[5] = tested on: Abutilon theophrasti medicus; test: as above; conditions: 1000 g active ingredient per hectare, 14th day after treatment, criteria of Table 138
Method in brief: as §2

[6] = tested on: Echinochloa oryzicola Vasing; test: Herbicidal effects in paddy field soil treatment (Test Example 1); conditions: paddy field soil treatment; 1000 g of the active ingredient per hectare; wettable powder added dropwise on water surface; 21st day after treatment
Method in brief: (§3)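 Sow seeds in puddled, leveled paddy soil; waterlog to 3 cm depth. On the following day apply water-diluted wettable powder onto the water surface (1000 g a.i./ha). Grow in greenhouse and assess herbicidal effect at day 21.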

[7] = tested on: Scirpus juncoides Roxb. var. ohwianus. T. Koyama; test: as above; conditions: paddy field soil treatment; 1000 g of the active ingredient per hectare; wettable powder added dropwise on water surface; 21st day after treatment
Method in brief: as §3

[8] = tested on: Monochoria vaginalis (Burm. f.) Presl var. plantaginea (Roxb.) Solms-Laub.; test: as above; conditions: paddy field soil treatment; 1000 g of the active ingredient per hectare; wettable powder added dropwise on water surface; 21st day after treatment
Method in brief: as §3

Row | SMILES | herbicidal effect (index) on Amaranthus viridis L. (Amaranthus viridis L. [1]) | herbicidal effect (index) on Abutilon theophrasti medicus [2] | herbicidal effect (index) on Amaranthus viridis L. (Amaranthus viridis L. [3]) | herbicidal effect (index) on Echinochloa crus-galli (L.) P. Beauv. var. crus-galli [4] | herbicidal effect (index) on Abutilon theophrasti medicus [5] | Herbicidal effects index, Echinochloa oryzicola Vasing [6] | Herbicidal effects index, Scirpus juncoides Roxb. var. ohwianus. T. Koyama [7] | Herbicidal effects index, Monochoria vaginalis (Burm. f.) Presl var. plantaginea (Roxb.) Solms-Laub. [8]
1 | O=C1CCCC(O)=C1C(=O)c1nc2ccccc2n(-c2cnccn2)c1=O [I-199] | 5 | 5 | 5 | 5 | 5 | 5 | 5 | 5
2 | O=C1CCCC(O)=C1C(=O)c1nc2ccccc2n(-c2ccc3c(c2)CCO3)c1=O [I-201] | 5 | 4 | 5 | 5 | 4 | 5 | 5 | 5
3 | O=C1CCCC(O)=C1C(=O)c1nc2ccccc2n(-c2ccc3c(c2)OCO3)c1=O [I-202, 1-(benzo[d][1,3]dioxol-5-yl)-3-(2-hydroxy-6-oxo-1-cyclohexenecarbonyl)-quinoxalin-2(1H)-one] | 5 | 4 | 5 | 4 | 5 | 5 | 5 | 5
4 | O=C1CCCC(O)=C1C(=O)c1nc2ccccc2n(-c2ccc3c(c2)OC(F)(F)O3)c1=O [I-207] | 5 | 5 | 5 | 5 | 5 | 4 | 5 | 5
5 | O=C1CCCC(O)=C1C(=O)c1nc2ccccc2n(CC2CCCO2)c1=O (stereo not drawn) [I-211] | 5 | 5 | 5 | 5 | 5 | 4 | 5 | 5
6 | CC1=NOC(Cn2c(=O)c(C(=O)C3=C(O)CCCC3=O)nc3ccccc32)C1 (stereo not drawn) [I-212] | 5 | 5 | 5 | 5 | 4 | 5 | 5 | 5
7 | Cc1cc(Cn2c(=O)c(C(=O)C3=C(O)CCCC3=O)nc3ccccc32)on1 [I-213] | 5 | 5 | 5 | 5 | 5 | 4 | 5 | 5
8 | Cn1c(=O)c(C(=O)C2=C(O)CCCC2=O)nc2cc(F)ccc21 [I-220] | 5 | 5 | 5 | 5 | 5 | 5 | 5 | 5
9 | Cn1c(=O)c(C(=O)C2=C(O)CCCC2=O)nc2ccc(F)cc21 [I-221] | 5 | 5 | 5 | 4 | 5 | 5 | 5 | 5
10 | Cn1c(=O)c(C(=O)C2=C(O)CCCC2=O)nc2cc(Cl)ccc21 [I-225] | 5 | 5 | 5 | 4 | 5 | 5 | 4 | 5
11 | Cn1c(=O)c(C(=O)C2=C(O)CCCC2=O)nc2ccc(Cl)cc21 [I-227] | 5 | 5 | 5 | 4 | 5 | 5 | 5 | 5
12 | Cn1c(=O)c(C(=O)C2=C(O)CCCC2=O)nc2cccc(Cl)c21 [I-229] | 5 | 5 | 5 | 4 | 5 | 4 | 5 | 5
13 | COCCn1c(=O)c(C(=O)C2=C(O)CCCC2=O)nc2cccc(Cl)c21 [I-230] | 5 | 4 | 5 | 5 | 5 | 5 | 5 | 5
14 | O=C1CCCC(O)=C1C(=O)c1nc2ccccc2n(-c2cccc3ccccc23)c1=O [I-263] | 5 | 5 | 5 | 5 | 5 | 5 | 5 | 5
15 | Cc1cc(-n2c(=O)c(C(=O)C3=C(O)CCCC3=O)nc3ccccc32)nn1C [I-266] | 5 | 5 | 5 | 5 | 5 | 5 | 5 | 5
16 | Cn1nc(-n2c(=O)c(C(=O)C3=C(O)CCCC3=O)nc3ccccc32)cc1C(F)(F)F [I-267] | 5 | 5 | 5 | 5 | 5 | 5 | 5 | 5
17 | O=C1CCCC(O)=C1C(=O)c1nc2ccccc2n(-c2nc(C(F)(F)F)co2)c1=O [I-268] | 5 | 5 | 5 | 5 | 5 | 5 | 5 | 5
18 | O=C1CCCC(O)=C1C(=O)c1nc2ccccc2n(-c2nncs2)c1=O [I-269] | 5 | 5 | 5 | 5 | 5 | 5 | 5 | 5
